Results taken from PubChem BioAssay (NCI).
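These data come from cells grown in 96-well plates and exposed to compound for 48 hours at five concentrations. At the TGI there is no net growth.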

Key:
Assay in all cases: NCI tumour cell line growth inhibition, 48 h
A498 renal = system: A498 renal
A549 NSCLC = system: A549 NSCLC
CAKI-1 renal = system: CAKI-1 renal
CCRF-CEM leukemia = system: CCRF-CEM leukemia
COLO 205 colon = system: COLO 205 colon
DLD-1 colon = system: DLD-1 colon
DMS 114 small cell lung = system: DMS 114 small cell lung
DMS 273 small cell lung = system: DMS 273 small cell lung
EKVX NSCLC = system: EKVX NSCLC
HCC-2998 colon = system: HCC-2998 colon
HCT-116 colon = system: HCT-116 colon
HCT-15 colon = system: HCT-15 colon
HL-60(TB) leukemia = system: HL-60(TB) leukemia
HOP-18 NSCLC = system: HOP-18 NSCLC
HOP-62 NSCLC = system: HOP-62 NSCLC
HOP-92 NSCLC = system: HOP-92 NSCLC
HT29 colon = system: HT29 colon
IGROV1 ovarian = system: IGROV1 ovarian
K-562 leukemia = system: K-562 leukemia
KM12 colon = system: KM12 colon
KM20L2 colon = system: KM20L2 colon
LOX IMVI melanoma = system: LOX IMVI melanoma
M19-MEL melanoma = system: M19-MEL melanoma
MALME-3M melanoma = system: MALME-3M melanoma
MCF7 breast = system: MCF7 breast
MOLT-4 leukemia = system: MOLT-4 leukemia
NCI-H226 lung = system: NCI-H226 lung
NCI-H23 lung = system: NCI-H23 lung
NCI-H460 lung = system: NCI-H460 lung
NCI-H522 lung = system: NCI-H522 lung
NCI/ADR-RES ovarian = system: NCI/ADR-RES ovarian
OVCAR-3 ovarian = system: OVCAR-3 ovarian
OVCAR-4 ovarian = system: OVCAR-4 ovarian
OVCAR-5 ovarian = system: OVCAR-5 ovarian
OVCAR-8 ovarian = system: OVCAR-8 ovarian
P388 leukemia = system: P388 leukemia
P388/ADR leukemia = system: P388/ADR leukemia
RXF 393 renal = system: RXF 393 renal
SF-268 CNS = system: SF-268 CNS
SF-295 CNS = system: SF-295 CNS
SF-539 CNS = system: SF-539 CNS
SK-MEL-2 melanoma = system: SK-MEL-2 melanoma
SK-MEL-28 melanoma = system: SK-MEL-28 melanoma
SK-MEL-5 melanoma = system: SK-MEL-5 melanoma
SK-OV-3 ovarian = system: SK-OV-3 ovarian
SN12C renal = system: SN12C renal
SN12K1 renal = system: SN12K1 renal
SNB-19 CNS = system: SNB-19 CNS
SNB-75 CNS = system: SNB-75 CNS
SNB-78 CNS = system: SNB-78 CNS
SW-620 colon = system: SW-620 colon
U251 CNS = system: U251 CNS
UACC-257 melanoma = system: UACC-257 melanoma
UACC-62 melanoma = system: UACC-62 melanoma
UO-31 renal = system: UO-31 renal
XF 498 CNS = system: XF 498 CNS
RPMI-8226 leukemia = system: RPMI-8226 leukemia

O=CNc1cccc2c3c([nH]c12)CCCCCC3
TGI (A498 renal): > 100 µM
TGI (A549 NSCLC): > 100 µM
TGI (CAKI-1 renal): > 100 µM
TGI (CCRF-CEM leukemia): > 100 µM
TGI (COLO 205 colon): > 100 µM
TGI (DLD-1 colon): > 100 µM
TGI (DMS 114 small cell lung): > 100 µM
TGI (DMS 273 small cell lung): > 100 µM
TGI (EKVX NSCLC): > 100 µM
TGI (HCC-2998 colon): > 100 µM
TGI (HCT-116 colon): > 100 µM
TGI (HCT-15 colon): > 100 µM
TGI (HL-60(TB) leukemia): > 100 µM
TGI (HOP-18 NSCLC): > 100 µM
TGI (HOP-62 NSCLC): > 100 µM
TGI (HOP-92 NSCLC): > 100 µM
TGI (HT29 colon): > 100 µM
TGI (IGROV1 ovarian): > 100 µM
TGI (K-562 leukemia): > 100 µM
TGI (KM12 colon): > 100 µM
TGI (KM20L2 colon): > 100 µM
TGI (LOX IMVI melanoma): > 100 µM
TGI (M19-MEL melanoma): > 100 µM
TGI (MALME-3M melanoma): > 100 µM
TGI (MCF7 breast): > 100 µM
TGI (MOLT-4 leukemia): > 100 µM
TGI (NCI-H226 lung): > 100 µM
TGI (NCI-H23 lung): > 100 µM
TGI (NCI-H460 lung): > 100 µM
TGI (NCI-H522 lung): > 100 µM
TGI (NCI/ADR-RES ovarian): > 100 µM
TGI (OVCAR-3 ovarian): > 100 µM
TGI (OVCAR-4 ovarian): > 100 µM
TGI (OVCAR-5 ovarian): > 100 µM
TGI (OVCAR-8 ovarian): > 100 µM
TGI (P388 leukemia): > 100 µM
TGI (P388/ADR leukemia): > 100 µM
TGI (RXF 393 renal): > 100 µM
TGI (SF-268 CNS): > 100 µM
TGI (SF-295 CNS): > 100 µM
TGI (SF-539 CNS): > 100 µM
TGI (SK-MEL-2 melanoma): > 100 µM
TGI (SK-MEL-28 melanoma): > 100 µM
TGI (SK-MEL-5 melanoma): > 100 µM
TGI (SK-OV-3 ovarian): > 100 µM
TGI (SN12C renal): > 100 µM
TGI (SN12K1 renal): > 100 µM
TGI (SNB-19 CNS): > 100 µM
TGI (SNB-75 CNS): > 100 µM
TGI (SNB-78 CNS): > 100 µM
TGI (SW-620 colon): > 100 µM
TGI (U251 CNS): > 100 µM
TGI (UACC-257 melanoma): > 100 µM
TGI (UACC-62 melanoma): > 100 µM
TGI (UO-31 renal): > 100 µM
TGI (XF 498 CNS): > 100 µM

C=C1C(=O)O[C@H]2C1[C@H](OC(=O)/C(C)=C\COC(C)=O)C[C@]1(CO1)[C@@H]1[C@H](O)[C@H]3O[C@@]3(C)[C@@H]12 (stereo partly drawn)
TGI (A498 renal): 99 µM
TGI (A549 NSCLC): > 100 µM
TGI (CAKI-1 renal): 31.5 µM
TGI (CCRF-CEM leukemia): 54.2 µM
TGI (COLO 205 colon): 21.9 µM
TGI (DLD-1 colon): 34.1 µM
TGI (DMS 114 small cell lung): 42.6 µM
TGI (DMS 273 small cell lung): > 63.2 µM
TGI (EKVX NSCLC): 57.3 µM
TGI (HCC-2998 colon): 22.2 µM
TGI (HCT-116 colon): 26.5 µM
TGI (HCT-15 colon): > 56.1 µM
TGI (HL-60(TB) leukemia): > 57.7 µM
TGI (HOP-18 NSCLC): 41.4 µM
TGI (HOP-62 NSCLC): > 100 µM
TGI (HOP-92 NSCLC): 30.8 µM
TGI (HT29 colon): 40.8 µM
TGI (IGROV1 ovarian): 59.8 µM
TGI (K-562 leukemia): 27 µM
TGI (KM12 colon): 29.5 µM
TGI (KM20L2 colon): > 82.7 µM
TGI (LOX IMVI melanoma): 37.2 µM
TGI (M19-MEL melanoma): 34.4 µM
TGI (MALME-3M melanoma): 38 µM
TGI (MCF7 breast): 27.8 µM
TGI (MOLT-4 leukemia): > 73.3 µM
TGI (NCI-H226 lung): 78.1 µM
TGI (NCI-H23 lung): 29.7 µM
TGI (NCI-H460 lung): > 100 µM
TGI (NCI-H522 lung): 22.8 µM
TGI (NCI/ADR-RES ovarian): 54.7 µM
TGI (OVCAR-3 ovarian): 44.8 µM
TGI (OVCAR-4 ovarian): > 77.3 µM
TGI (OVCAR-5 ovarian): > 100 µM
TGI (OVCAR-8 ovarian): 99.5 µM
TGI (P388 leukemia): 18.4 µM
TGI (P388/ADR leukemia): 30 µM
TGI (RPMI-8226 leukemia): 46.5 µM
TGI (RXF 393 renal): 32.9 µM
TGI (SF-268 CNS): 49.7 µM
TGI (SF-295 CNS): > 100 µM
TGI (SF-539 CNS): > 65.4 µM
TGI (SK-MEL-2 melanoma): 48.8 µM
TGI (SK-MEL-28 melanoma): 31.7 µM
TGI (SK-MEL-5 melanoma): 37.8 µM
TGI (SK-OV-3 ovarian): > 100 µM
TGI (SN12C renal): > 57.1 µM
TGI (SN12K1 renal): > 55.9 µM
TGI (SNB-19 CNS): > 100 µM
TGI (SNB-75 CNS): > 96.2 µM
TGI (SNB-78 CNS): > 73.5 µM
TGI (SW-620 colon): 30.8 µM
TGI (U251 CNS): 44.7 µM
TGI (UACC-257 melanoma): 31.3 µM
TGI (UACC-62 melanoma): 30.4 µM
TGI (UO-31 renal): > 100 µM
TGI (XF 498 CNS): 38.4 µM
